In publication PMC10687119, “Quaternary Ammonium Salts of Cationic Lipopeptides with Lysine Residues — Synthesis, Antimicrobial, Hemolytic and Cytotoxic Activities” (Probiotics and Antimicrobial Proteins, 2023):
In brackets after ≈: the same amount, converted by molar mass. Where a SMILES comes first, the peptide text is derived from it. The star is where a group is joined. Palmitoyl = CCCCCCCCCCCCCCCC(=O)*

test system: E. faecium ATCC 700221; type: cell-based, Enterococcus faecium; conditions: ATCC 700221, 18 h
Experimental: (§1) The Acinetobacter baumannii ATCC BAA-1605, Enterococcus faecium ATCC 700221, Klebsiella aerogenes ATCC 13048, Klebsiella pneumoniae ATCC 700603, Pseudomonas aeruginosa ATCC 9027, Staphylococcus aureus ATCC 33591, Candida glabrata ATCC 15126 strains were acquired from the American Type Culture Collection (ATCC, Manassas, USA). All the strains were stored at −80 °C in Roti-Store cryo vials (Carl Roth GmbH, Germany) and before the tests were transferred into fresh Mueller–Hinton broth (MHB, Becton Dickinson, Poland) for bacteria or RPMI-1640 (Sigma-Aldrich, Germany) for fungi and incubated for 24 h at 37 °C. Then, the cultures were cultured on the Mueller–Hinton agar (BioMaxima, Poland) or Sabouraud dextrose agar (SDA, BioMaxima) plates, respectively, and incubated as just mentioned. For microbiological assays, a minimum of three to five well-isolated colonies of the same morphological type were carefully picked from the agar cultures. These colonies were transferred with sterile loop into fresh microbiological medium and incubated with shaking (100 rpm) at 37 °C until they reached logarithmic phase of growth. Cell densities for all assays were adjusted through spectrophotometric measurements (Multiskan GO Microplate Spectrophotometer, Thermo Fisher Scientific, Finland) at 600 and 530 nm for bacteria and fungi, respectively.
(§2) The MICs were determined by broth microdilution method according to the Clinical and Laboratory Standard Institute guidelines. For this purpose, initial inoculums of bacteria (5 × 10^5 CFU/mL) in MHB and yeasts (2 × 10^3 CFU/mL) in RPMI-1640 with 2% D-glucose were exposed to the ranging concentration of lipopeptides (1–512 μg/mL) and incubated at 37 °C for 18 h and 24 h, respectively. The experiments were conducted on 96-well microtiter polystyrene plates (Kartell, Italy). The growth was assessed visually after incubation and the MIC was assumed as the lowest peptide concentration at which a noticeable growth of microorganisms was inhibited. Benzalkonium chloride (Sigma-Aldrich, Germany) was used as reference compound. All experiments were conducted in triplicate.

| MIC [µg/mL] | Structure (SMILES) |
| --- | --- |
| 8 (≈ 12.5 µM) | CCCCCCCCCCCCCCCC(=O)N[C@@H](CCCCN)C(=O)N[C@@H](CCCCN)C(=O)N[C@@H](CCCCN)C(N)=O [Peptide 3P, C16-KKK-NH2] |
| 4 (≈ 5.99 µM) | CCCCCCCCCCCCCCCCCC(=O)N[C@@H](CCCCN)C(=O)N[C@@H](CCCCN)C(=O)N[C@@H](CCCCN)C(N)=O [Peptide 3S, C18-KKK-NH2] |
| 4 (≈ 5.21 µM) | CCCCCCCCCCCCCCCC(=O)N[C@@H](CCCCN)C(=O)N[C@@H](CCCCN)C(=O)N[C@@H](CCCCN)C(=O)N[C@@H](CCCCN)C(N)=O [Peptide 4P, C16-KKKK-NH2] (Palmitoyl-KKKK-NH2) |

test system: K. pneumoniae ATCC 700603; type: cell-based, Klebsiella pneumoniae; conditions: ATCC 700603, 18 h
Experimental: as §1, §2

| MIC [µg/mL] | Structure (SMILES) |
| --- | --- |
| 32 (≈ 50 µM) | CCCCCCCCCCCCCCCC(=O)N[C@@H](CCCCN)C(=O)N[C@@H](CCCCN)C(=O)N[C@@H](CCCCN)C(N)=O [Peptide 3P, C16-KKK-NH2] |
| 8 (≈ 12 µM) | CCCCCCCCCCCCCCCCCC(=O)N[C@@H](CCCCN)C(=O)N[C@@H](CCCCN)C(=O)N[C@@H](CCCCN)C(N)=O [Peptide 3S, C18-KKK-NH2] |
| 32 (≈ 41.7 µM) | CCCCCCCCCCCCCCCC(=O)N[C@@H](CCCCN)C(=O)N[C@@H](CCCCN)C(=O)N[C@@H](CCCCN)C(=O)N[C@@H](CCCCN)C(N)=O [Peptide 4P, C16-KKKK-NH2] (Palmitoyl-KKKK-NH2) |

test system: A. baumannii ATCC BAA 1605; type: cell-based, Acinetobacter baumannii; conditions: ATCC BAA 1605, 18 h
Experimental: as §1, §2

| MIC [µg/mL] | Structure (SMILES) |
| --- | --- |
| 64 (≈ 100 µM) | CCCCCCCCCCCCCCCC(=O)N[C@@H](CCCCN)C(=O)N[C@@H](CCCCN)C(=O)N[C@@H](CCCCN)C(N)=O [Peptide 3P, C16-KKK-NH2] |
| 32 (≈ 47.9 µM) | CCCCCCCCCCCCCCCCCC(=O)N[C@@H](CCCCN)C(=O)N[C@@H](CCCCN)C(=O)N[C@@H](CCCCN)C(N)=O [Peptide 3S, C18-KKK-NH2] |
| 64 (≈ 83.3 µM) | CCCCCCCCCCCCCCCC(=O)N[C@@H](CCCCN)C(=O)N[C@@H](CCCCN)C(=O)N[C@@H](CCCCN)C(=O)N[C@@H](CCCCN)C(N)=O [Peptide 4P, C16-KKKK-NH2] (Palmitoyl-KKKK-NH2) |

test system: P. aeruginosa ATCC 9027; type: cell-based, Pseudomonas aeruginosa; conditions: ATCC 9027, 18 h
Experimental: as §1, §2

| MIC [µg/mL] | Structure (SMILES) |
| --- | --- |
| 32 (≈ 50 µM) | CCCCCCCCCCCCCCCC(=O)N[C@@H](CCCCN)C(=O)N[C@@H](CCCCN)C(=O)N[C@@H](CCCCN)C(N)=O [Peptide 3P, C16-KKK-NH2] |
| 16 (≈ 24 µM) | CCCCCCCCCCCCCCCCCC(=O)N[C@@H](CCCCN)C(=O)N[C@@H](CCCCN)C(=O)N[C@@H](CCCCN)C(N)=O [Peptide 3S, C18-KKK-NH2] |
| 32 (≈ 41.7 µM) | CCCCCCCCCCCCCCCC(=O)N[C@@H](CCCCN)C(=O)N[C@@H](CCCCN)C(=O)N[C@@H](CCCCN)C(=O)N[C@@H](CCCCN)C(N)=O [Peptide 4P, C16-KKKK-NH2] (Palmitoyl-KKKK-NH2) |

test system: K. aerogenes ATCC 13048; type: cell-based, Klebsiella aerogenes; conditions: ATCC 13048, 18 h
Experimental: as §1, §2

| MIC [µg/mL] | Structure (SMILES) |
| --- | --- |
| 8 (≈ 12.5 µM) | CCCCCCCCCCCCCCCC(=O)N[C@@H](CCCCN)C(=O)N[C@@H](CCCCN)C(=O)N[C@@H](CCCCN)C(N)=O [Peptide 3P, C16-KKK-NH2] |
| 4 (≈ 5.99 µM) | CCCCCCCCCCCCCCCCCC(=O)N[C@@H](CCCCN)C(=O)N[C@@H](CCCCN)C(=O)N[C@@H](CCCCN)C(N)=O [Peptide 3S, C18-KKK-NH2] |
| 8 (≈ 10.4 µM) | CCCCCCCCCCCCCCCC(=O)N[C@@H](CCCCN)C(=O)N[C@@H](CCCCN)C(=O)N[C@@H](CCCCN)C(=O)N[C@@H](CCCCN)C(N)=O [Peptide 4P, C16-KKKK-NH2] (Palmitoyl-KKKK-NH2) |

test system: C. glabrata ATCC 15126; type: cell-based, Candida glabrata; conditions: ATCC 15126, 24 h
Experimental: as §1, §2

| MIC [µg/mL] | Structure (SMILES) |
| --- | --- |
| 64 (≈ 100 µM) | CCCCCCCCCCCCCCCC(=O)N[C@@H](CCCCN)C(=O)N[C@@H](CCCCN)C(=O)N[C@@H](CCCCN)C(N)=O [Peptide 3P, C16-KKK-NH2] |
| 8 (≈ 12 µM) | CCCCCCCCCCCCCCCCCC(=O)N[C@@H](CCCCN)C(=O)N[C@@H](CCCCN)C(=O)N[C@@H](CCCCN)C(N)=O [Peptide 3S, C18-KKK-NH2] |
| 64 (≈ 83.3 µM) | CCCCCCCCCCCCCCCC(=O)N[C@@H](CCCCN)C(=O)N[C@@H](CCCCN)C(=O)N[C@@H](CCCCN)C(=O)N[C@@H](CCCCN)C(N)=O [Peptide 4P, C16-KKKK-NH2] (Palmitoyl-KKKK-NH2) |

test system: human red blood cells (RBCs); type: cell-based; conditions: red cells of human
Experimental: The hemolysis assay was conducted using a procedure described previously. For this purpose, human red blood cells (RBCs) isolated from K2EDTA Single Donor Human Whole blood (Innovative Research, Inc, MI, USA) were rinsed with Phosphate-buffer saline (PBS, pH 7.4±0.05, composition - KCl 2.7 mM, NaCl 140 mM, phosphate 10mM; AppliChem GmbH, Germany) by centrifugation for 10 min at 800 × g. This process was repeated 3 times and the RBCs were resuspended in PBS. Then, the stock solution of RBCs was added to the serial dilution of lipopeptides on 96-well polystyrene plates to reach a final volume of 100 μL with a 4% concentration of erythrocytes (v/v) and a concentration range of 1-512 μg/mL of tested compounds. The control wells for 0% and 100% hemolysis consisted of RBCs suspended in PBS and 1% of Triton X-100 (Sigma-Aldrich, Germany), respectively. Benzalkonium chloride (Sigma-Aldrich, Germany) was used as reference compound. Subsequently, the plates were incubated for 60 min at 37 °C and then centrifuged at 800 × g for 10 min at 4 °C (Sorvall ST […] Centrifuge, Thermo Scientific). The supernatant was carefully […] to new microtiter plates. The release of hemoglobin was monitored absorbance measurements at 540 nm (MultiskanTM GO Microplate Spectrophotometer, Thermo Scientific). All experiments were conducted in triplicate. HC50 was calculated using an ic50.tk tool.

| HC50 [µg/mL] | Structure (SMILES) |
| --- | --- |
| 135.46 ± 8.69 | CCCCCCCCCCCCCCCC(=O)N[C@@H](CCCCN)C(=O)N[C@@H](CCCCN)C(=O)N[C@@H](CCCCN)C(N)=O [Peptide 3P, C16-KKK-NH2] |
| 32.11 ± 1.54 | CCCCCCCCCCCCCCCCCC(=O)N[C@@H](CCCCN)C(=O)N[C@@H](CCCCN)C(=O)N[C@@H](CCCCN)C(N)=O [Peptide 3S, C18-KKK-NH2] |
| >512 | CCCCCCCCCCCCCCCC(=O)N[C@@H](CCCCN)C(=O)N[C@@H](CCCCN)C(=O)N[C@@H](CCCCN)C(=O)N[C@@H](CCCCN)C(N)=O [Peptide 4P, C16-KKKK-NH2] (Palmitoyl-KKKK-NH2) |

test system: human keratinocyte cell line (HaCaT); type: cell-based; conditions: 24 h
Experimental: The immortalized human keratinocyte cell line (HaCaT), obtained from CLS (Cell Line Service, Germany) was cultured in DMEM-high glucose (Dulbecco’s Modified Eagle Medium) supplemented with 10% fetal bovine serum, 2 mM L-glutamine, 100 U/mL penicillin and 100 μg/mL streptomycin (Sigma-Aldrich; Merck KGaA) at 37 °C in a humidified atmosphere with 5% CO2. Cells were trypsinized, and the medium was renewed 2–3 times per week. The cytotoxicity of compounds was assessed by colorimetric CellTilter 96® Aqueous One Solution Cell Proliferation Assay (Promega, USA), containing a tetrazolium compound according to the manufacturer’s instructions. In brief, 7 × 10^3 HaCaT cells per well were plated on 96-well plates and incubated per night to adhere to the cultured dishes. After that time, different concentrations of the tested compounds ranging from 512 to 1 μg/mL were applied to the wells. Every compound was medium-soluble at 37 °C; thus, the non-treated cells were negative control. Serial dilutions of the tested compounds were always prepared before use. Cells were incubated with drugs for 24 h, and then, 20 μL of the CellTiter 96®AqueousOne Solution Reagent was added to each well containing treated cells in 100 µl of culture medium. After 4 h of incubation at 37 °C, the absorbance at 490 nm was recorded using a microplate reader (Epoch, BioTek Instruments, USA). The quantity of formazan product as measured by the amount of 490 nm absorbance is directly proportional to the number of living cells in culture. Benzalkonium chloride (Sigma-Aldrich, Germany) was used as reference compound. At least three independent experiments with two replicates were conducted for each concentration of a compound, and the IC50 values were calculated using GraphPad Prism 8 software.

| Structure (SMILES) | IC50 [µg/mL] |
| --- | --- |
| CCCCCCCCCCCCCCCC(=O)N[C@@H](CCCCN)C(=O)N[C@@H](CCCCN)C(=O)N[C@@H](CCCCN)C(N)=O [Peptide 3P, C16-KKK-NH2] | 45.40 ± 20.45 (≈ 70.9 µM) |
| CCCCCCCCCCCCCCCCCC(=O)N[C@@H](CCCCN)C(=O)N[C@@H](CCCCN)C(=O)N[C@@H](CCCCN)C(N)=O [Peptide 3S, C18-KKK-NH2] | 88.51 ± 4.72 (≈ 132 µM) |
| CCCCCCCCCCCCCCCC(=O)N[C@@H](CCCCN)C(=O)N[C@@H](CCCCN)C(=O)N[C@@H](CCCCN)C(=O)N[C@@H](CCCCN)C(N)=O [Peptide 4P, C16-KKKK-NH2] (Palmitoyl-KKKK-NH2) | 126.80 ± 27.26 (≈ 165 µM) |
